Patent publication US8557958B1, “Compositions and methods for treatment of diabetes” (Tarix Pharmaceuticals Ltd., priority 2012, dated 2013)
“Also recorded” adds a separate entry of the source. Bridge positions count the residues as written; N and C are the ends. Ends that are not written are not given here.

Legend:
[1] = test system: streptozotocin (STZ) induced diabetic mouse model; assay: Blood glucose in STZ induced diabetic mouse model (Example 2); assay type: in vivo, mouse (C57Bl/6); conditions: for Blood Glucose (Mean): 50 μg/kg SC once daily; for Blood glucose levels as compared to vehicle treated group: 50 μg/kg body weight SC for twenty eight days
Protocol: C57Bl/6 female mice, 6-7 weeks old were used for the study and conditions were the same as for Example 1 above unless otherwise specified. Following acclimatization, mice were dosed intraperitoneally (IP) with 50 mg/kg STZ solubilized in 0.05 M sodium citrate buffer at a volume of 100 μl per mouse for five consecutive days. Blood Glucose levels were monitored on day 6 post STZ using Accu check glucose meter. Mice were grouped having average blood glucose levels of 200 mg/dL. There were three groups of ten mice each. Mice were dosed subcutaneously with Linear PanCyte (SEQ ID NO:6), PanCyte or vehicle for twenty-eight days. […]
Linear PanCyte and PanCyte were prepared in saline and administrated subcutaneously at a dose volume of 100 μl/mouse daily for twenty-eight days. Dosing solutions were prepared fresh every three days.
The blood glucose level was lowest in the groups treated with PanCyte 50 μg/kg followed by Linear-PanCyte 50 μg/kg.

diabetic mouse model = conditions: Bindom et al. 2010; cited from earlier work
[2] = test system: streptozotocin (STZ) induced diabetic mouse model; assay: Blood glucose in STZ induced diabetic mouse model (Example 1); assay type: in vivo, mouse (C57Bl/6); conditions: 50 and 500 μg/kg body weight; monitored 3×/week for 4 weeks post STZ; FIG. 1
Description: Streptozotocin is a widely used chemical agent for producing Type-I Diabetes in experimental animals. The chemical is thought to cause Diabetes by direct action on the pancreatic beta cells and inhibits the insulin secretory mechanism. Depending upon the dosing regimen, streptozotocin can cause a mild, moderate, or severe diabetic condition.
C57Bl/6 female, 7-8 weeks old were used for the study. Upon arrival, mice were 6 weeks of age. All the mice were obtained from The Jackson Laboratory, Bar Harbor, Me. 04609, USA.
(§1) Following acclimatization, mice were dosed intraperitoneally (IP) with 50 mg/kg STZ solubilized in 0.05 M sodium citrate at a volume of 100 μl per mouse for five consecutive days. Blood Glucose levels were monitored beginning day 4 post STZ using a glucose meter (Accu-Chek Advantage from Roche). On day six (after five days of STZ injection) mice were grouped into four groups having average blood glucose levels of 200 mg/dL. Two groups were dosed with PanCyte (SEQ ID NO:22) 50 and 500 μg/kg body weight respectively, one group was dosed with TXA-127 (SEQ ID NO:1) 500 ug/kg, and one group was dosed with PBS as vehicle control.
Blood glucose was be monitored 3×/week for 4 weeks post STZ. Blood glucose levels was be monitored using a glucose meter by placing a drop of blood directly on to the meter strip, and measuring according to manufacturer's instructions.

[3] = test system: streptozotocin (STZ) induced diabetic mouse model; assay: Plasma insulin levels by mouse insulin ELISA in STZ induced diabetic mouse model (Example 1); assay type: in vivo, mouse (C57Bl/6); conditions: for Plasma insulin levels as compared to vehicle treated control: days 14 and 28; for Insulin (Mean): plasma
Protocol: as §1
Plasma insulin levels were measured on days 14 and 28 after treatment. Blood samples (approximately 50 to 100 ul) were collected and processed for plasma by centrifugation. Plasma samples were then used for the measurement of insulin levels using a mouse sensitive insulin ELISA kit (ALPCO Diagnostic), according the to manufacturer's instructions.

adipocytes = conditions: administered directly to adipocytes in vitro; Liu, C. et al. 2011; cited from earlier work
[4] = dose 500 μg (500 μg/kg body weight), day 14 after treatment
[5] = dose 500 μg (500 μg/kg body weight), day 28 after treatment

| Substance | Blood Glucose (Mean) ([1]; day 1) | Blood Glucose (Mean) ([1]; day 3) | Blood Glucose (Mean) ([1]; day 5) | Blood Glucose (Mean) ([1]; day 8) | Blood Glucose (Mean) ([1]; day 10) | Blood Glucose (Mean) ([1]; day 12) | Blood Glucose (Mean) ([1]; day 15) | Blood Glucose (Mean) ([1]; day 17) | Blood Glucose (Mean) ([1]; day 19) | Blood Glucose (Mean) ([1]; day 22) | Blood Glucose (Mean) ([1]; day 24) | Blood Glucose (Mean) ([1]; day 26) | Blood glucose levels as compared to vehicle treated group [1] | Plasma insulin levels as compared to vehicle treated control ([3]; 500 ug/kg weight) | Insulin (Mean) [3, 4] | Insulin (Mean) [3, 5] | other results |
| --- | --- | --- | --- | --- | --- | --- | --- | --- | --- | --- | --- | --- | --- | --- | --- | --- | --- |
| Asp^1-Arg^2-Val^3-Ser^4-Ile^5-His^6-Cys^7 [Linear-PanCyte] (DRVSIHC; linear) | 222.8 mg/dL | 202.2 mg/dL | 220.7 mg/dL | 248.5 mg/dL | 252.1 mg/dL | 276.1 mg/dL | 278.6 mg/dL | 269.3 mg/dL | 280.7 mg/dL | 266.2 mg/dL | 256.3 mg/dL | 253 mg/dL | Significant differences; also recorded: lowered blood glucose levels significantly | – | – | – | – |
| D-Ala^7-Ang-(1-7) | – | – | – | – | – | – | – | – | – | – | – | – | – | – | – | – | Effect on the decrease in blood glucose and increase in insulin levels seen with ACE2 expression (diabetic mouse model): blocked the decrease in blood glucose |
| Asp^1-Arg^2-Val^3-Ser^4-Ile^5-His^6-Cys^7 [PanCyte] (DRVSIHC; bridge 4-7) | 223 mg/dL | 205.3 mg/dL | 197.8 mg/dL | 213.2 mg/dL | 230.7 mg/dL | 234.8 mg/dL | 232.5 mg/dL | 240.3 mg/dL | 230 mg/dL | 237.1 mg/dL | 237.3 mg/dL | 232.6 mg/dL | Significant differences; also recorded: lowered blood glucose levels significantly | significantly higher levels of insulin | 1.016 ng/mL | 0.902 ng/mL | Blood glucose levels [2]: decreased blood glucose levels; Plasma insulin levels as compared to vehicle treated control ([3]; 50 ug/kg weight): significantly higher levels of insulin; Insulin (Mean) ([3]; dose 50 μg (50 μg/kg body weight), day 14 after treatment): 1.217 ng/mL; Insulin (Mean) ([3]; dose 50 μg (50 μg/kg body weight), day 28 after treatment): 1.244 ng/mL |
| Asp^1-Arg^2-Val^3-Tyr^4-Ile^5-His^6-Pro^7 [TXA-127] | – | – | – | – | – | – | – | – | – | – | – | – | – | significantly higher levels of insulin | 1.097 ng/mL | 0.954 ng/mL | Glucose uptake (adipocytes): increased glucose uptake |
